Reference: US5288709A, “Erythromycin derivatives” (priority 1991, dated 1994)
Values after ≈ are worked out from the molar mass of the structure shown. Like-named read-outs stand apart in the source and are kept apart here.

Key:
Experiment in all cases: In-vitro antimicrobial activity primary screen (agar dilution MIC)
Type in all cases: cell-based
[1] = test system: Pseudomonas aeruginosa K799/WT
Description: (§1) The antimicrobial spectra of several of the compounds of the present invention were tested as described below.
(§2) Twelve petri dishes containing successive aqueous dilutions of the test compounds, mixed with 10 mL of sterilized Brain Heart Infusion (BHI) agar (Difco 0418-01-5), were prepared. Each plate was inoculated with 1:100 (or 1:10 for slow growing strains (primarily Micrococcus and Streptococcus) dilutions of up to 32 different microorganisms, using a Steers replicator block. The inoculated plates were incubated at 35 37° C. for 20-24 hours. In addition, a control plate, using BHI agar containing no test compound, was prepared and incubated at the beginning and the end of each test.
(§3) An additional plate containing a compound having known susceptibility patterns for the organisms being tested and belonging to the same antibiotic class as the test compounds was also prepared and incubated as a further control, as well as to provide test-to test comparability.
(§4) After incubation, each plate was read. The MIC (minimum inhibitory concentration) is defined as the lowest concentration of test compound yielding no growth, a slight haze, or sparsely isolated colonies on the inoculum spot as compared to the growth control containing no test compound.

[2] = test system: Staphylococcus aureus A5177; settings: Staphylococcus aureus A5177, BHI agar, 20-24 h
Description: as §1, §2, §3, §4

[3] = test system: Streptococcus agalactiae CMX 508; settings: 20-24 h
Description: as §1, §2, §3, §4

[4] = test system: Staphylococcus epidermidis 3519; settings: Staphylococcus epidermidis, 3519, 24 h, BHI agar, 20-24 h
Description: as §1, §2, §3, §4

[5] = test system: Micrococcus luteus ATCC 4698; settings: Micrococcus luteus, ATCC4698, 24 h, BHI agar, 20-24 h
Description: as §1, §2, §3, §4

[6] = test system: Enterococcus faecium ATCC 8043
Description: as §1, §2, §3, §4

[7] = test system: Pseudomonas aeruginosa A5007
Description: as §1, §2, §3, §4

[8] = test system: Staphylococcus aureus ATCC 6538P; settings: Staphylococcus aureus, ATCC6538P, 24 h, BHI agar, 20-24 h
Description: as §1, §2, §3, §4

[9] = test system: Streptococcus pyrogenes EES61; settings: BHI agar, 20-24 h, read-out: MIC
Description: as §1, §2, §3, §4

Staphylococcus aureus 45 = settings: BHI agar, 20-24 h
Description: as §1, §2, §3, §4

[10] = test system: Micrococcus luteus ATCC 9341; settings: ATCC9341, BHI agar, 20-24 h, read-out: MIC
Description: as §1, §2, §3, §4

[11] = test system: Klebsiella pneumoniae ATCC 8045
Description: as §1, §2, §3, §4

[12] = test system: Providencia stuartii CMX 640
Description: as §1, §2, §3, §4

[13] = test system: Staphylococcus aureus 45 RAR2; settings: Staphylococcus aureus, 45RAR2, 24 h, BHI agar, 20-24 h
Description: as §1, §2, §3, §4

Escherichia coli H560 = test system: Escherichia coli H560
Description: as §1, §2, §3, §4

Escherichia coli JUHL = test system: Escherichia coli JUHL
Description: as §1, §2, §3, §4

[14] = test system: Streptococcus bovis A5169; settings: Streptococcus equinus, BHI agar, 20-24 h
Description: as §1, §2, §3, §4

[15] = test system: Enterobacter aerogenes ATCC 13048; settings: Klebsiella aerogenes
Description: as §1, §2, §3, §4

Escherichia coli SS = settings: BHI agar, 20-24 h
Description: as §1, §2, §3, §4

[16] = test system: Streptococcus pyrogenes 2548 INDUC; settings: Streptococcus, 2548INDUC, 24 h, BHI agar, 20-24 h
Description: as §1, §2, §3, §4

Acinetobacter SP CMX 669 = test system: Acinetobacter SP CMX 669
Description: as §1, §2, §3, §4

Pseudomonas cepacia 2961 = settings: BHI agar, 20-24 h
Description: as §1, §2, §3, §4

[17] = test system: Pseudomonas aeruginosa BMH10; settings: BHI agar, 20-24 h
Description: as §1, §2, §3, §4

Escherichia coli DC-2 = test system: Escherichia coli DC-2
Description: as §1, §2, §3, §4

[18] = test system: Pseudomonas aeruginosa K799/61; settings: Pseudomonas aeruginosa, K799/61, 24 h, Pseudomonas aeruginosa K799/61; BHI agar, 20-24 h
Description: as §1, §2, §3, §4

[19] = test system: Staphylococcus aureus CMX 686B; settings: CMX686B, BHI agar, 20-24 h, read-out: MIC
Description: as §1, §2
as §3, with “comparability. Erythromycin A was used for this purpose.” for “comparability.”
as §4

[20] = test system: Staphylococcus aureus CMX 503A; settings: Staphylococcus aureus, CMX503A, 24 h, BHI agar, 20-24 h, read-out: MIC
Description: as §1, §2
as §3, with “comparability. Erythromycin A was used for this purpose.” for “comparability.”
as §4

[21] = test system: Staphylococcus aureus CMX 553; settings: Staphylococcus aureus, CMX553, 24 h, BHI agar, 20-24 h, read-out: MIC
Description: as §1, §2
as §3, with “comparability. Erythromycin A was used for this purpose.” for “comparability.”
as §4

Q: With `CC[C@H]1OC(=O)[C@H](C)[C@@H](O[C@H]2C[C@@](C)(OC)[C@H](NS(C)(=O)=O)[C@H](C)O2)[C@H](C)[C@@H](O[C@@H]2O[C@H](C)C[C@H](N(C)C)[C@H]2O)[C@](C)(O)C[C@@H](C)[C@@H]2O[C@@]1(C)C(=O)[C@H]2C` [Example 11, (4"R,9S)-9-Deoxo-4",11,12-trideoxy-9,12-epoxy-4"-[(methylsulphonyl)amino]-11-oxoerythromycin A] as the molecule, how does the MIC ([1]; Pseudomonas aeruginosa K799/WT, BHI agar, 20-24 h, read-out: MIC) read?
A: 100 µg/mL (≈ 126 µM)

Q: What about the MIC ([2]; Staphylococcus aureus, A5177, 24 h) of the same molecule?
A: 0.39 µg/mL (≈ 0.492 µM)

Q: What about the MIC ([3]; CMX508, BHI agar, read-out: MIC) of the same molecule?
A: 0.02 µg/mL (≈ 0.0252 µM)

Q: And the MIC [4]?
A: 0.78 µg/mL (≈ 0.984 µM)

Q: And the MIC [5]?
A: 0.1 µg/mL (≈ 0.126 µM)

Q: And the MIC ([6]; ATCC8043, Enterococcus faecium ATCC 8043, BHI agar, 20-24 h, read-out: MIC)?
A: 0.05 µg/mL (≈ 0.063 µM)

Q: And the MIC ([7]; Pseudomonas aeruginosa A5007, BHI agar, 20-24 h, read-out: MIC)?
A: > 100 µg/mL

Q: And the MIC [8]?
A: 0.39 µg/mL (≈ 0.492 µM)

Q: What about the MIC [9] of the same molecule?
A: < 0.005 µg/mL

Q: What about the MIC (Staphylococcus aureus 45; Staphylococcus aureus, 45, 24 h) of the same molecule?
A: 0.39 µg/mL (≈ 0.492 µM)

Q: What about the MIC [10] of the same molecule?
A: 0.05 µg/mL (≈ 0.063 µM)

Q: What about the MIC ([11]; ATCC8045, Klebsiella pneumoniae ATCC 8045, BHI agar, 20-24 h, read-out: MIC) of the same molecule?
A: > 100 µg/mL

Q: And the MIC ([12]; CMX640, Providencia stuartii CMX 640, BHI agar, 20-24 h, read-out: MIC)?
A: > 100 µg/mL

Q: And the MIC [13]?
A: 0.39 µg/mL (≈ 0.492 µM)

Q: And the MIC (Escherichia coli H560; Escherichia coli H560, BHI agar, 20-24 h, read-out: MIC)?
A: > 100 µg/mL

Q: And the MIC (Escherichia coli JUHL; Escherichia coli JUHL, BHI agar, 20-24 h, read-out: MIC)?
A: > 100 µg/mL

Q: What about the MIC ([14]; read-out: MIC) of the same molecule?
A: < 0.005 µg/mL

Q: And the MIC ([15]; ATCC13048, Enterobacter aerogenes ATCC 13048, BHI agar, 20-24 h, read-out: MIC)?
A: > 100 µg/mL

Q: And the MIC (Escherichia coli SS; Escherichia coli, 24 h)?
A: 0.78 µg/mL (≈ 0.984 µM)

Q: What about the MIC [16] of the same molecule?
A: 0.78 µg/mL (≈ 0.984 µM)

Q: And the MIC (Acinetobacter SP CMX 669; SPCMX669, Acinetobacter SP CMX 669, BHI agar, 20-24 h, read-out: MIC)?
A: 50 µg/mL (≈ 63 µM)

Q: What about the MIC (Pseudomonas cepacia 2961; Burkholderia cepacia, read-out: MIC) of the same molecule?
A: > 100 µg/mL

Q: What about the MIC ([17]; read-out: MIC) of the same molecule?
A: > 100 µg/mL

Q: And the MIC (Escherichia coli DC-2; DC2, Escherichia coli DC-2, BHI agar, 20-24 h, read-out: MIC)?
A: > 100 µg/mL

Q: And the MIC [18]?
A: 3.1 µg/mL (≈ 3.91 µM)

Q: What about the MIC [19] of the same molecule?
A: 0.39 µg/mL (≈ 0.492 µM)

Q: What about the MIC [20] of the same molecule?
A: 0.39 µg/mL (≈ 0.492 µM)

Q: What about the MIC [21] of the same molecule?
A: 0.2 µg/mL (≈ 0.252 µM)

Q: Which MIC ([1]; Pseudomonas aeruginosa, K799/WT, 24 h) does the source give for `CC[C@H]1OC(=O)[C@H](C)[C@@H](O[C@H]2C[C@@](C)(OC)[C@H](NCc3ccccc3)[C@H](C)O2)[C@H](C)[C@@H](O[C@@H]2O[C@H](C)C[C@H](N(C)C)[C@H]2O)[C@](C)(O)C[C@@H](C)[C@@H]2O[C@@]1(C)C(=O)[C@H]2C` [Example 12, (4"R,9S)-9-Deoxo-4", 11,12-trideoxy-9,12-epoxy-11-oxo-4"-[(phenylmethyl)amino]erythromycin A] here?
A: 100 µg/mL (≈ 124 µM)

Q: What about the MIC ([2]; read-out: MIC) of the same molecule?
A: 0.39 µg/mL (≈ 0.484 µM)

Q: What about the MIC ([3]; Streptococcus agalactiae, CMX508, 24 h, BHI agar) of the same molecule?
A: 0.1 µg/mL (≈ 0.124 µM)

Q: What about the MIC [4] of the same molecule?
A: 0.39 µg/mL (≈ 0.484 µM)

Q: What about the MIC [5] of the same molecule?
A: 0.39 µg/mL (≈ 0.484 µM)

Q: And the MIC ([6]; Enterococcus faecium, ATCC8043, 24 h)?
A: 0.2 µg/mL (≈ 0.248 µM)

Q: What about the MIC ([7]; Pseudomonas aeruginosa, A5007, 24 h) of the same molecule?
A: > 100 µg/mL

Q: And the MIC [8]?
A: 0.39 µg/mL (≈ 0.484 µM)

Q: What about the MIC [9] of the same molecule?
A: 0.1 µg/mL (≈ 0.124 µM)

Q: What about the MIC (Staphylococcus aureus 45; read-out: MIC) of the same molecule?
A: 0.2 µg/mL (≈ 0.248 µM)

Q: What about the MIC [10] of the same molecule?
A: 0.05 µg/mL (≈ 0.0621 µM)

Q: What about the MIC ([11]; Klebsiella pneumoniae, ATCC8045, 24 h) of the same molecule?
A: > 100 µg/mL

Q: And the MIC ([12]; Providencia stuartii, CMX640, 24 h)?
A: > 100 µg/mL

Q: And the MIC [13]?
A: 0.39 µg/mL (≈ 0.484 µM)

Q: And the MIC (Escherichia coli H560; Escherichia coli, H560, 24 h)?
A: > 100 µg/mL

Q: And the MIC (Escherichia coli JUHL; Escherichia coli, 24 h)?
A: > 100 µg/mL

Q: What about the MIC ([14]; A5169, 24 h) of the same molecule?
A: 0.05 µg/mL (≈ 0.0621 µM)

Q: What about the MIC ([15]; ATCC13048, 24 h) of the same molecule?
A: > 100 µg/mL

Q: What about the MIC (Escherichia coli SS; read-out: MIC) of the same molecule?
A: 3.1 µg/mL (≈ 3.85 µM)

Q: What about the MIC [16] of the same molecule?
A: 3.1 µg/mL (≈ 3.85 µM)

Q: What about the MIC (Acinetobacter SP CMX 669; Acinetobacter, SPCMX669, 24 h) of the same molecule?
A: > 100 µg/mL

Q: And the MIC (Pseudomonas cepacia 2961; Burkholderia cepacia, 2961, 24 h)?
A: > 100 µg/mL

Q: What about the MIC ([17]; Pseudomonas aeruginosa, BMH10, 24 h) of the same molecule?
A: > 100 µg/mL

Q: And the MIC (Escherichia coli DC-2; Escherichia coli, DC2, 24 h)?
A: > 100 µg/mL

Q: What about the MIC [18] of the same molecule?
A: 3.1 µg/mL (≈ 3.85 µM)

Q: What about the MIC [19] of the same molecule?
A: 0.39 µg/mL (≈ 0.484 µM)

Q: And the MIC [20]?
A: 0.39 µg/mL (≈ 0.484 µM)

Q: And the MIC [21]?
A: 0.2 µg/mL (≈ 0.248 µM)
